The structures appear in SMILES notation.

One data set concerns Trypanosoma cruzi. Briefly: Trypanocidal activity against Trypanosoma cruzi trypomastigotes incubated for 24 hrs. The format is functional, organism-based.
In general, IC50 refers to the concentration that gives 50% inhibition. For `O=C1C=CC(=O)c2c1cccc2-n1cc(-c2ccccc2)nn1`, the IC50 was determined as 86.7 µM.
On to `O=C1C=CC(=O)c2c(O)cccc21` [JUGLONE], for which the half-inhibitory concentration (IC50) was determined as 105 µM. The IC50 values of the last two molecules are within 1.5-fold of each other.
For the molecule `O=C(Cn1ccnc1[N+](=O)[O-])NCc1ccccc1` [BENZNIDAZOLE], half-maximal inhibition (IC50) required 6.8 µM. Against the preceding molecule, the IC50 is about 15-fold lower.
The same measure, in the same setting: the result for `O=C1C=CC(=O)c2c([Se]c3ccccc3)cccc21` reads 14.4 µM; that for `CCOC(=O)/C=C/c1cccc2c1C(=O)C=CC2=O`, 90.5 µM.

Another data set deals with Trypanosoma cruzi. Briefly: Trypanocidal activity against bloodstream Trypanosoma cruzi trypomastigotes incubated for 24 hrs by light microscopy. Type of data set: functional, organism-based.
As for `Cc1ccc(-c2cc3c(cc2O)C(=O)C=CC3=O)cn1`, the IC50 was 24.2 µM.
Still for that read-out and setting: with `CC12C=CC(C)(O1)c1cc3c(cc12)C(=O)C=CC3=O` the figure was 40 µM; with `O=C1C=CC(=O)c2cc(N(c3ccccc3)c3ccccc3)ccc21`, 134 µM; with `O=C1C=CC(=O)c2cc(N(Cc3ccccc3)Cc3ccccc3)ccc21`, greater than 400 µM.
For `COc1ccc(OC)c2ccccc12`, the IC50 was greater than 500 µM.
`CC(C)=C1C2C=CC1c1cc3c(cc12)C(=O)C=CC3=O` showed an IC50 greater than 800 µM.
`CCC12C=CC(O1)c1cc3c(cc12)C(=O)C=CC3=O` (stereo not drawn): the IC50 worked out at 48.8 µM.
The same measure, in the same setting: with `COCC12C=CC(O1)c1cc3c(cc12)C(=O)C=CC3=O` (stereo not drawn) the figure was 58.1 µM; with `O=C1C=CC(=O)c2cc(-n3cccn3)ccc21`, 74.4 µM; with `CC(=O)OCC12C=CC(O1)c1cc3c(cc12)C(=O)C=CC3=O` (stereo not drawn), 27.3 µM.
`O=C(Cn1ccnc1[N+](=O)[O-])NCc1ccccc1` [BENZNIDAZOLE] registered an IC50 of 108 µM. This IC50 lies about 4-fold higher than the previous one.
On the same count and under the same terms, with `COc1ccc(OC)c2cc(O)ccc12` the figure was 379 µM; with `O=C1C=CC(=O)c2cc(-c3cnc4ccccc4c3)c(O)cc21`, 46.6 µM; with `CC(C)N(c1ccc2c(c1)C(=O)C=CC2=O)C(C)C`, 18 µM.
Regarding `O=C1C=CC(=O)c2cc3c(cc21)C1C=CC3O1`, the IC50 was 10.1 µM. Compared with the last molecule, the IC50 is about 1.8-fold lower.
`CC(=O)C12C=CC(O1)c1cc3c(cc12)C(=O)C=CC3=O` (stereo not drawn): half-maximal inhibition (IC50) required 64.4 µM.
Molecule `N#Cc1ccc(Nc2ccc3c(c2)C(=O)C=CC3=O)cc1` returned an IC50 of 94.8 µM. This IC50 and that of the molecule before are within 1.5-fold of each other.
`O=C1C=CC(=O)c2cc(-c3cccc(-c4ccccc4)n3)c(O)cc21` came in with an IC50 of 30.1 µM.
In turn, `Cc1ccc(Nc2ccc3c(c2)C(=O)C=CC3=O)cc1` registered an IC50 of 138 µM.
Same read-out and setting: the result for `C=CCN(CC=C)c1ccc2c(c1)C(=O)C=CC2=O` reads 111 µM; that for `O=C1C=CC(=O)c2cc(Nc3cccc4ccccc34)ccc21`, 186 µM; that for `O=C1C=CC(=O)c2cc(-c3ccc(-c4ccccc4)nc3)c(O)cc21`, 10.5 µM.
In turn, `Cc1ccncc1-c1cc2c(cc1O)C(=O)C=CC2=O` registered a 50% inhibitory concentration (IC50) of 181 µM.
`CCN(CC)c1ccc2c(c1)C(=O)C=CC2=O` gave a 50% inhibitory concentration (IC50) of 96.2 µM.
Molecule `CCN(CC)C(=O)Oc1ccc2c(OC)ccc(OC)c2c1` returned an IC50 greater than 800 µM.
Same read-out and setting: the result for `O=C1C=CC(=O)c2cc(OCCCCOc3ccccc3)ccc21` reads 362 µM.
Molecule `O=C1C=CC(=O)c2cc(N(C3CCCCC3)C3CCCCC3)ccc21` came in with a 50% inhibitory concentration (IC50) of 54.2 µM.
Regarding `COc1ccc(OC)c2cc([Si](C)(C)C)c(O)cc12`, it took 69.3 µM to reach half-maximal inhibition (IC50).
Consider `CN(c1ccccc1)c1ccc2c(c1)C(=O)C=CC2=O`, for which the IC50 came out at 29.5 µM.
Molecule `O=C1C=CC(=O)c2cc(Nc3ccccc3)ccc21` gave a half-inhibitory concentration (IC50) of 39.2 µM.

Tested on in the next data set: not listed separately
Briefly: Solubility of compound. Type of data set: physicochemical.
On to `COc1ccc(OC)c2cc([Si](C)(C)C)c(OS(=O)(=O)C(F)(F)C(F)(F)C(F)(F)C(F)(F)F)cc12`, for which the solubility result is “Insoluble”.
Consider `O=C1C=CC(=O)c2cc(-c3cccnc3)c(O)cc21`, for which the solubility entry is reported as “Insoluble”.

Tested on in the next data set: not listed separately
The data set is described as follows: Stability of compound. The format is physicochemical.
In the case of `C[Si](C)(C)c1cc2c(cc1OS(=O)(=O)C(F)(F)C(F)(F)C(F)(F)C(F)(F)F)C(=O)C=CC2=O`, the Stability entry is listed as “Unstable”.
